Data taken from US20180057505A1, “BICYCLIC HETEROARYL COMPOUNDS USEFUL AS INHIBITORS OF THE PAR-2 SIGNALING PATHWAY” (VERTEX PHARMACEUTICALS INCORPORATED, priority 2015, published 2018).

Legend:
Type in all cases: cell-based
PAR2 (HT-29 cells) [1] = molecular target: T1, PAR2 (HT-29 cells) (Homo sapiens, UniProt P55085); assay: Ca FLIPR TETRA assay, ANTAGONIST mode, activator 8 μM SLIGKV; conditions: HT-29 cells, activator 8 μM SLIGKV; maximal antagonist concentration per Method (A: 0.1, 1 or 2 μM; B: 50 μM)
T1 construct: host or cells: HT-29
T1 sequence (P55085 26-397): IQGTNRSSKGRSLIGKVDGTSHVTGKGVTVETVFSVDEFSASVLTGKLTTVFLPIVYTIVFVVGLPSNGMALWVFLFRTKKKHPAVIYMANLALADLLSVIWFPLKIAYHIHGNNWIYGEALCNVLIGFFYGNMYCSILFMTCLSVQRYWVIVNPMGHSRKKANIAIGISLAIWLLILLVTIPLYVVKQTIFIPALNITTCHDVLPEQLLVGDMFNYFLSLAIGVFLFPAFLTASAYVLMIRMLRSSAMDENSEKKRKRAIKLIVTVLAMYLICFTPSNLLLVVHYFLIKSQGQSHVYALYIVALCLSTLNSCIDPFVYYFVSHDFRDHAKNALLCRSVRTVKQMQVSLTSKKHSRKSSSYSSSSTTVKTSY
How it was run: (§1)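 HT-29 cells in 1% FBS/McCoy's overnight, loaded with FLIPR Calcium 5 dye (45 min 37 °C, 15 min r.t.); compounds added and read for intrinsic Ca2+ activation, then after 30 min r.t. stimulated with fixed activator: 8 μM SLIGKV, 0.6 μM UTP, 1 U/mL thrombin or 3.1 U/mL trypsin (final).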

PAR2 (HT-29 cells) [2] = molecular target: T1, PAR2 (HT-29 cells); assay: Ca FLIPR TETRA assay, ANTAGONIST mode, activator 3.1 U/mL trypsin; conditions: HT-29 cells, activator 3.1 U/mL trypsin; maximal antagonist concentration per Method (A: 0.1, 1 or 2 μM; B: 50 μM)
How it was run: as §1

[3] = tested on: Thrombin-stimulated Ca2+ response in HT-29 cells; assay: Ca FLIPR TETRA assay, ANTAGONIST mode, activator 1 U/mL Thrombin; conditions: Homo sapiens; HT-29 cells, activator 1 U/mL Thrombin
How it was run: as §1

[4] = tested on: UTP-stimulated Ca2+ response in HT-29 cells; assay: Ca FLIPR TETRA assay, ANTAGONIST mode, activator 0.6 μM UTP; conditions: Homo sapiens; HT-29 cells, activator 0.6 μM UTP
How it was run: as §1

CC(C)(C)c1cc(C2CCC(F)(F)CC2)nc2cc(C(=O)N3CCN(C(=O)c4ncccn4)CC3(C)C)oc12 [Example I-231]
IC50 (PAR2 (HT-29 cells) [1]): 84 nM
IC50 (PAR2 (HT-29 cells) [2]): 160 nM
IC50 [3]: > 2000 nM
IC50 [4]: > 2000 nM

CC(C)(C)c1cc(C2CCC(F)(F)CC2)nc2cc(C(=O)N3CCN(C(=O)CCS(C)(=O)=O)CC3(C)C)oc12 [Example I-232]
IC50 (PAR2 (HT-29 cells) [1]): 215 nM
IC50 (PAR2 (HT-29 cells) [2]): 200 nM
IC50 [3]: > 2000 nM
IC50 [4]: > 2000 nM

CCC(CC)c1cc(-c2ccc(F)cc2)nc2cc(C(=O)N3CCNC(=O)C3(C)C)oc12 [Example I-233]
IC50 (PAR2 (HT-29 cells) [1]): 6.2 nM
IC50 (PAR2 (HT-29 cells) [2]): 8.1 nM
IC50 [3]: > 2000 nM
IC50 [4]: > 2000 nM

CC(C)(C)c1cc(C2CCC(F)(F)CC2)nc2cc(C(=O)N3CCN(C(=O)[C@H]4C[C@@](C)(O)C4)CC3(C)C)oc12 [Example I-234]
IC50 (PAR2 (HT-29 cells) [1]): 22 nM
IC50 (PAR2 (HT-29 cells) [2]): 38 nM
IC50 [3]: > 2000 nM
IC50 [4]: > 2000 nM

CC(C)(C)c1cc(-c2ccc(F)cc2)nc2cc(C(=O)N3CCN(c4ccn[nH]4)C(=O)C3(C)C)oc12 [Example I-235]
IC50 (PAR2 (HT-29 cells) [1]): 5.6 nM
IC50 (PAR2 (HT-29 cells) [2]): 9.4 nM
IC50 [3]: > 2000 nM
IC50 [4]: > 2000 nM

CN1CCN(C(=O)c2cc3nc(-c4ccc(Cl)cc4)cc(C(C)(C)C)c3o2)C(C)(C)C1=O [Example I-236]
IC50 (PAR2 (HT-29 cells) [1]): 3.5 nM
IC50 (PAR2 (HT-29 cells) [2]): 5 nM
IC50 [3]: > 2000 nM
IC50 [4]: > 2000 nM

[2H]C([2H])([2H])N1CCN(C(=O)c2cc3nc(-c4ccc(Cl)c(F)c4)cc(C(C)(C)C)c3o2)C(C)(C)C1=O [Example I-237]
IC50 (PAR2 (HT-29 cells) [1]): 1.8 nM
IC50 (PAR2 (HT-29 cells) [2]): 2.4 nM
IC50 [3]: > 2000 nM
IC50 [4]: > 2000 nM

[2H]C([2H])([2H])N1CCN(C(=O)c2cc3nc(-c4cccc(Cl)c4)cc(C(C)(C)C)c3o2)C(C)(C)C1=O [Example I-238]
IC50 (PAR2 (HT-29 cells) [1]): 18 nM
IC50 (PAR2 (HT-29 cells) [2]): 28 nM
IC50 [3]: > 2000 nM
IC50 [4]: > 2000 nM

[2H]C([2H])([2H])N1CCN(C(=O)c2cc3nc(-c4ccc(F)c(Cl)c4)cc(C(C)(C)C)c3o2)C(C)(C)C1=O [Example I-239]
IC50 (PAR2 (HT-29 cells) [1]): 6.1 nM
IC50 (PAR2 (HT-29 cells) [2]): 5.4 nM
IC50 [3]: > 2000 nM
IC50 [4]: > 2000 nM

[2H]C([2H])([2H])N1CCN(C(=O)c2cc3nc(-c4ccc(Cl)cc4)cc(C(C)(C)C)c3o2)C(C)(C)C1=O [Example I-240]
IC50 (PAR2 (HT-29 cells) [1]): 2.7 nM
IC50 (PAR2 (HT-29 cells) [2]): 1.8 nM
IC50 [3]: > 2000 nM
IC50 [4]: > 2000 nM

CN1CCN(C(=O)c2cc3nc(-c4ccc(Cl)c(F)c4)cc(C(C)(C)C)c3o2)C(C)(C)C1=O [Example I-241]
IC50 (PAR2 (HT-29 cells) [1]): 1.7 nM
IC50 (PAR2 (HT-29 cells) [2]): 1.6 nM
IC50 [3]: > 2000 nM
IC50 [4]: > 2000 nM

CN1CCN(C(=O)c2cc3nc(-c4cccc(Cl)c4)cc(C(C)(C)C)c3o2)C(C)(C)C1=O [Example I-242]
IC50 (PAR2 (HT-29 cells) [1]): 19 nM
IC50 (PAR2 (HT-29 cells) [2]): 24 nM
IC50 [3]: > 2000 nM
IC50 [4]: > 2000 nM

CN1CCN(C(=O)c2cc3nc(-c4ccc(F)c(Cl)c4)cc(C(C)(C)C)c3o2)C(C)(C)C1=O [Example I-243]
IC50 (PAR2 (HT-29 cells) [1]): 4 nM
IC50 (PAR2 (HT-29 cells) [2]): 7.4 nM
IC50 [3]: > 2000 nM
IC50 [4]: > 2000 nM

CC(C)(C)c1cc(-c2cccc(Cl)c2)nc2cc(C(=O)N3CCNC(=O)C3(C)C)oc12 [Example I-244]
IC50 (PAR2 (HT-29 cells) [1]): 19 nM
IC50 (PAR2 (HT-29 cells) [2]): 27 nM
IC50 [3]: > 2000 nM
IC50 [4]: > 2000 nM

CC[C@@H](C)c1cc(-c2ccc(F)cc2)nc2cc(C(=O)N3CCNC(=O)C3(C)C)oc12 [Example I-245]
IC50 (PAR2 (HT-29 cells) [1]): 2.5 nM
IC50 (PAR2 (HT-29 cells) [2]): 4.8 nM
IC50 [3]: > 2000 nM
IC50 [4]: > 2000 nM

CC[C@H](C)c1cc(-c2ccc(F)cc2)nc2cc(C(=O)N3CCNC(=O)C3(C)C)oc12 [Example I-246]
IC50 (PAR2 (HT-29 cells) [1]): 11 nM
IC50 (PAR2 (HT-29 cells) [2]): 16 nM
IC50 [3]: > 2000 nM
IC50 [4]: > 2000 nM

Cc1cn[nH]c1N1CCN(C(=O)c2cc3nc(-c4ccc(F)cc4)cc(C(C)(C)C)c3o2)C(C)(C)C1=O [Example I-247]
IC50 (PAR2 (HT-29 cells) [1]): 12 nM
IC50 (PAR2 (HT-29 cells) [2]): 20 nM
IC50 [3]: > 2000 nM
IC50 [4]: > 2000 nM

Cc1cc(N2CCN(C(=O)c3cc4nc(-c5ccc(F)cc5)cc(C(C)(C)C)c4o3)C(C)(C)C2=O)[nH]n1 [Example I-248]
IC50 (PAR2 (HT-29 cells) [1]): 11 nM
IC50 (PAR2 (HT-29 cells) [2]): 41 nM
IC50 [3]: > 2000 nM
IC50 [4]: > 2000 nM

CCCC(CC)c1cc(-c2ccc(F)cc2)nc2cc(C(=O)N3CCNC(=O)C3(C)C)oc12 (stereo not shown) [Example I-249]
IC50 (PAR2 (HT-29 cells) [1]): 4 nM
IC50 (PAR2 (HT-29 cells) [2]): 11 nM
IC50 [3]: > 2000 nM
IC50 [4]: > 2000 nM
